According to US4347319A, “Microbiological epoxidation process” (priority 1980, dated 1982):

Key:
[1] = tested on: methane-grown methylotrophic microorganisms; experiment: Epoxidation by methane-grown cells of the strains of the invention; type: cell-based
Experimental: The pH of the nutrient medium was adjusted to 7.0 by the addition of acid or base and 50 ml samples of the nutrient medium were charged into a plurality of 300 ml shaker flasks. The shaker flasks were inoculated with an inoculating loop of cells from an agar plate containing homogeneous colonies of the microorganisms on the plate (the purity of the isolates was confirmed by microscopic examination. The isolates had been maintained on agar plates under an atmosphere of methane and air having a 1:1 v/v gas ratio which had been transferred evey two weeks. The gaseous phase of the inoculated flasks was then replaced with a gas mixture comprised of methane and air having a ratio of 1:1 on a v/v basis. The inoculated flasks were sealed air tight and were incubated on a rotary shaker of orbital radius 2.5 cm at 250 rpm and at 30° C. for two days until turbidity in the medium had developed.
The cells were harvested by centrifugation at 10,000×g. at 4° C. for 30 minutes. The cell pellet was washed twice with a 0.15 M phosphate buffer at a pH of 7.0 (containing 0.002 M MgCl2). […]
A 0.5 ml sample of each washed cell suspension (2 mg cells) was put into 10 ml vials at 4° C. which were sealed with a rubber cap. […] Samples of product (3 μl) were withdrawn periodically with a microsyringe and the products were analyzed by gas chromatography (ionization flame detector column). […]

[2] = target: T1, cell fractions of Methylosinus sp. (CRL-15, NRRL B-11,202) (Methylosinus trichosporium, UniProt Q50541+Q9KX50+Q9KX51); experiment: Oxidation by cell fractions P(40), P(80), S(80); type: biochemical; settings: P(40) particulate fraction; alkene to epoxide, alkane to alcohol; 30° C.
T1 sequence (Q9KX50 40-431): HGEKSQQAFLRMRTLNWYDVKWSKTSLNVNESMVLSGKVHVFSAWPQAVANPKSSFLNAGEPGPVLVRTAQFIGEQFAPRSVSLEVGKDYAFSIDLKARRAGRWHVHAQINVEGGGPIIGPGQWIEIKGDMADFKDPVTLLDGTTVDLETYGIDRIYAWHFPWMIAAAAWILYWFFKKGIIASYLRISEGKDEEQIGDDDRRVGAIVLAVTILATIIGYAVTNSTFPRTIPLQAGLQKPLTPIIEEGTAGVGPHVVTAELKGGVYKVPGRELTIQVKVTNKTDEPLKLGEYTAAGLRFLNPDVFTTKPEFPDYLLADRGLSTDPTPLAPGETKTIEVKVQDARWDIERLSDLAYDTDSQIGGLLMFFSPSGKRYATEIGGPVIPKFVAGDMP
T1 sequence (Q50541 1-252): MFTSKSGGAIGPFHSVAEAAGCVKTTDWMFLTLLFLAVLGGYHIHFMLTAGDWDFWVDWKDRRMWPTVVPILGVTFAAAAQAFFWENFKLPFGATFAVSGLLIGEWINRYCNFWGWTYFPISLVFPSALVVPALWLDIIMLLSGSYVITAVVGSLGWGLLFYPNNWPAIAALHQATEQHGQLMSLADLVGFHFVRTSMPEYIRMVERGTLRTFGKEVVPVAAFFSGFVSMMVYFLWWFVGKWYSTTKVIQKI
T1 sequence (Q9KX51 1-256): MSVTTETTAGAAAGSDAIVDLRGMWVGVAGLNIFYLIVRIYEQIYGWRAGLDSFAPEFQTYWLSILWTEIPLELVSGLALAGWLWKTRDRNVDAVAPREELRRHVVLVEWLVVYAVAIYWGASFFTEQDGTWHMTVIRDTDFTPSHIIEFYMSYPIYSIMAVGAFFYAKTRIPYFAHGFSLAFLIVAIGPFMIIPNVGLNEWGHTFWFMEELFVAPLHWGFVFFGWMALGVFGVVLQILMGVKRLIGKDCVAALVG
Experimental: Cells were washed twice with 25 mM potassium phosphate buffer, pH 7.0 containing 5 mM MgCl2. Cells were suspended in the same buffer. The cell suspensions at 4° C. were disintegrated by a single passage through a French Pressure cell (15,000 lb./in.^2) and centrifuged at 5000×g. for 15 min. to remove unbroken bacteria. The supernatant solution (crude extract) was then centrifuged at 40,000×g. for 30 min., yielding particulate P(40) and soluble S(40) fractions. The S(40) fraction was subsequently centrifuged at 80,000×g. for 60 min., yielding particulate P(80) and soluble S(80) fractions. The particulate fractions [P(40) and P(80)] were suspended in 25 mM potassium phosphate buffer, pH 7.0, containing 5 mM MgCl2 and homogenized at 4° C.
The oxidation of methane and propylene by particulate [(P)40 and (P)80] fractions and soluble [S(80)] fraction was measured at 30° C. by estimating the production of methanol and propylene oxide, respectively. The reaction mixtures contained in […]: 150 mM potassium phosphate buffer, pH 7.0 containing 5 mM MgCl2 b, 0.6 ml; 10μ moles NADH, and cellular fraction.
Reaction mixtures were contained in 10 ml vials at 4° C. Vials were sealed with rubber caps. The gaseous phase in the vials was removed using vacuum and then was replaced with a gas mixture of methane or propylene and oxygen at a 1:1, v/v ratio. Oxidation of other gaseous n-alkanes and n-alkanes was examined as described above. For liquid substrates, 10 μl of substrate was used directly.
The products of epoxidation of n-alkenes and hydroxylation of n-alkanes were assayed by flame ionization gas chromatography using a stainless steel column (12'×1/8") packed with 10% Carbowax 20 M on 80/100 Chromosorb W and Porapak Q column. The column temperature was maintained isothermally at 120° C. The carrier gas flow rate was 30 ml/min. of helium. The various products were identified by retention time comparisons and co-chromatography with authentic standards.
Specific activities were expressed as μ moles of products formed per hour per mg. protein. Concentrations of protein in various fractions were determined by the method of Lowry et al., J. Biol. Chem., 193: 265-275 (1951).

SMILES	epoxide product formation [1]	Rate of Product Formation [2]
C=CCCC [1-Pentene]	did not produce any detectable epoxide product	0 μ moles/hr/mg of protein
C=CCCCC [hexene-1]	did not produce any detectable epoxide product	–
